Measurements: article PMC5469758, “Identification of an in vivo orally active dual-binding protein-protein interaction inhibitor targeting TNFα through combined in silico/in vitro/in vivo screening” (Scientific Reports, 2017)
Where two headings read alike, the source gives them in different places.

Experiments:
caspase 8 activation = test: Caspase-Glo 8 activation assay; format: cell-based; conditions: dose dependent
Procedure: (§1) Caspases 3 and 8 activation was determined using Caspase-Glo® 3 and Caspase-Glo-8® assays kits (Promega) according to the manufacter’s procedures. After 8 hours of treatment, plates were equilibrated at room temperature. 100 μl Caspase-Glo 3® and Caspase-Glo 8® reagent were added to each well. Luminescence was read on a FLUOstar OPTIMA reader.

TNFα [1] = target: T1, TNFα (Homo sapiens, UniProt P01375); test: Surface Acoustic Wave (SAW) biosensor gravimetric measurement of dissociation constants; format: binding; conditions: for Kd: two-site binding model, room temperature
T1 construct: purchased R&D Systems
Procedure: Gravimetric measurements were performed using surface acoustic wave (SAW) sensors. TNFα solutions were prepared by diluting 10 µg of lyophilized TNFα in 1 ml of PBS. They were kept in the freezer (at −18 °C) and put at room temperature just before their further grafting onto the gold surface area of the SAW sensor.
Phase shift variations (ΔΦ) versus compound concentration (C) were fitted using equation 1 ΔΦ=Φsat×C/Kd+C where Φsat represents the maximum sensor’s response to the compound binding and Kd represents the equilibrium dissociation constant.
In the case of a two-site binding, equation 2 was used for fitting:2 ΔΦ=Φsat,1×C/Kd1+C+Φsat,2×C/Kd2+C
where Φsat1 and Φsat2 are related to the maximum sensor’s response for each binding site and Kd1 and Kd2 are their respective dissociation constants.

TNFα/TNFRI = target: T2, TNFα/TNFRI (Homo sapiens, UniProt P01375); test: TNFα-TNFRI binding ELISA; format: biochemical
T2 construct: purchased R&D Systems
Procedure: (§2) Microtiter plates were coated with 12.5 ng of TNFRI or TNFRII in 125 μl of PBS per well at 37 °C. The wells were washed, blocked with PBS/BSA 2% for three hours and washed as before. Serial dilutions of compounds were mixed with a fixed quantity of TNFα in PBS/BSA 1% and incubated two hours at 37 °C. 125 μl of the mix were added to the wells and plates were incubated overnight at 4 °C. Wells were washed incubated with 37.5 ng of TNFα biotinylated antibody in 125 μl of PBS/BSA 1% for two hours at 37 °C. Wells were washed and incubated with avidin-HRP (1:500) in 125 μl of PBS/BSA 1% for 30 minutes at 37 °C, 5% CO2. After washing, TMB solution was added to wells, quenched with 63 μl of 1 M H2SO4 solution. Absorbance was measured at 450 nm.

IKKα = target: T3, IKKα (Homo sapiens, UniProt O15111); test: CEREP/Eurofins kinase inhibition, IKKα; format: biochemical; conditions: read-out: % Inhibition of Control Values
T3 construct: purchased CEREP/Eurofins
Procedure: (§3) Kinases and caspases activities in presence of 1 µM of compound 1 were carried out by CEREP/Eurofins (Celle-Lévescault). The activity of compound 1 on the different kinases and caspases was compared to control values. Data are expressed as percentages of inhibition of control values.

p38γ kinase = target: T4, p38γ kinase (Homo sapiens, UniProt P53778); test: CEREP/Eurofins kinase inhibition, p38γ; format: biochemical; conditions: read-out: % Inhibition of Control Values
T4 construct: purchased CEREP/Eurofins
Procedure: as §3

[2] = system: CXCL1 secretion by L929 cells; test: CXCL1 secretion in L929 supernatants after TNFα stimulation (ELISA); format: cell-based, murine; conditions: TNFα (5 ng/ml)
Procedure: Cells were plated at 2.5 × 10^5 cells/well in 24-well plates and treated as indicated. Eight hours later, supernatants were recovered and kept at −20 °C for later use. The concentration of murine CXCL1 was measured in supernatants with a dosage ELISA kit obtained from R&D Systems (Lille, France) according to the manufacter’s procedures.

[3] = system: murine TNFα-induced apoptosis on L929 cells; test: Neutralization of murine TNFα induced apoptosis in L929 cells; format: cell-based; conditions: Mus musculus
Procedure: (§4) 80% confluent L929 cells were plated in flat bottom plates at 4 × 10^5 cells per well in 100 μl of DMEM medium containing 10% FBS, 2 mM L-Glutamine, 100 U/ml Penicillin − 100 μg/ml Streptomycin and incubated for one night at 37 °C, 5% CO2. TNFα or TNFβ (150 pg/ml), Actinomycin D (4 μg/ml) and the compounds at different concentrations (ranging from 100 μM to 0.8 μM) were mixed in 150 μl DMEM medium 1% FBS, 2 mM L-Glutamine, 100 U/ml Penicillin−100 μg/ml Streptomycin in U-bottom plates. After two hours incubation at 37 °C, 5% CO2, 100 μl of the mix was added to the plated cells and incubated at 37 °C, 5% CO2 for 24 hours. Supernatants were discarded and 100 μl of MTT at 0.5 mg/ml were added to wells. After two hours, supernatants were discarded and 200 μl of DMSO were then added. Plates were read at 570 nm with a spectrophotometer providing the optical density (OD) of each well. The percentage of neutralization of TNFα by a compound was calculated using equation 3:3 %Neutra=ODcompound−ODTNFα/ODcells−ODTNFα×100
(§5) An IC50 could be computed from the percentage of neutralization for each compound.

Caspase 3 = target: T5, Caspase 3 (Homo sapiens, UniProt P42574); test: CEREP/Eurofins caspase inhibition, Caspase 3; format: biochemical; conditions: Caspase 3, 1 μM; read-out: % Inhibition of Control Values
T5 construct: purchased CEREP/Eurofins
Procedure: as §3

TNFα [4] = target: T1, TNFα; test: Intrinsic tryptophan fluorescence of TNFα; format: binding; conditions: 0.5 μM TNFα; 20–100 µM range
Procedure: All samples were brought to 10 mM phosphate buffer, 0.05% Tween20, 1% DMSO. Fluorescence readings were made with a Quantamaster QM4CW spectrofluorimeter (Photon Technology International), by exciting TNFα at 290 nm and measuring the emission peaks at 322 nm. Compound 1 inner filter effects were corrected using absorbance measurements of compound alone solutions at 290 nm and 322 nm.

[5] = system: human TNFα induced apoptosis on the L929 cell line; test: Neutralization of human TNFα induced apoptosis in L929 cells (MTT); format: cell-based; conditions: human TNFα, read-out: IC50, inhibition of TNFα induced apoptosis
Procedure: as §4, §5

IKKβ = target: T6, IKKβ (Homo sapiens, UniProt O14920); test: CEREP/Eurofins kinase inhibition, IKKβ; format: biochemical; conditions: read-out: % Inhibition of Control Values
T6 construct: purchased CEREP/Eurofins
Procedure: as §3

Bioavailability = format: in vivo; conditions: mouse, oral
caspase 3 activation = test: Caspase-Glo 3 activation assay; format: cell-based; conditions: dose dependent
Procedure: as §1

Syk = target: T7, Syk (Homo sapiens, UniProt P43405); test: CEREP/Eurofins kinase inhibition, Syk; format: biochemical; conditions: read-out: % Inhibition of Control Values
T7 construct: purchased CEREP/Eurofins
Procedure: as §3

p38α kinase = target: T8, p38α kinase (Homo sapiens, UniProt Q16539); test: CEREP/Eurofins kinase inhibition, p38α; format: biochemical; conditions: read-out: % Inhibition of Control Values
T8 construct: purchased CEREP/Eurofins
Procedure: as §3

[6] = Solubility in aqueous solvents; format: physicochemical
Balb/C mice = test: LPS/D-Galactosamine induced lethal shock (TNFα-dependent hepatic shock model); format: in vivo
Procedure: 7 weeks-old Balb/C mice were force-fed with 100 μl of a solution of DMSO containing various doses of compound 1 (5 mg down to 0.5 mg) eight hours before receiving an intraperitoneal injection of 200 μl of PBS containing 0.1 μg of LPS and 20 mg of D-Galactosamine. A control group (DMSO) was force-fed with 100 μl of a solution of DMSO alone eight hours before to be injected with 200 μl of LPS/D-Galactosamine solution. Mice survival was monitored for 48 hours after the injection of LPS/D-Galactosamine.
7 weeks-old Balb/C mice were forced-fed with a solution of DMSO containing 5 mg of compound 1 eight hours before receiving an intraperitoneal injection of 200 μl of PBS containing 0.1 μg of LPS and 20 mg of D-Galactosamine. Eight hours after LPS/D-Galactosamine injection, mice were sacrificed by cervical dislocation and livers were harvested, fixed in 4% formalin and embedded in paraffin. […] Slides were scanned with a slide scanner (Perkin Elmer) and analyzed with Pannoramic viewer (3D HISTECH).
7 weeks-old Balb/C mice were forced-fed with a solution of DMSO containing 5 mg of compound 1 eight hours before receiving an intraperitoneal injection of 200 μl of PBS containing 0.1 μg of LPS and 20 mg of D-Galactosamine. Three hours after LPS/D-Galactosamine injection, mice were anesthetized with ketamine/xylazine to recover blood by cardiac puncture. Sera were kept at −80 °C until assay.
TNFα in serum was quantified using U-CyTech biosciences kits (Utrecht, The Netherlands) according to manufacturer’s procedures.
7 weeks-old Balb/C mice were forced-fed with a solution of DMSO containing 5 mg of compound 1 eight hours before receiving an intraperitoneal injection of 200 μl of PBS containing 0.1 μg of LPS and 20 mg of D-Galactosamine. Eight hours after, mice were anesthetized by an injection of ketamine/xylazine to recover blood by cardiac puncture. Sera were kept at −80 °C until assay. Quantification of AST/ALT was performed using Architec ci 8200 analyser (Abbott) with reagent kits from Abbott.

[7] = system: TNFα induced NF-κB activation in HEK cells; test: HEK-Blue TNFα NF-κB secreted embryonic alkaline phosphatase reporter assay; format: cell-based, human; conditions: Homo sapiens, HEK293; HEK cell line expressing TNFRI; read-out: IC50, TNFα signaling NF-κB reporter
Procedure: 80% confluent HEK-Blue™ TNFα were plated in flat bottom plates at 5 × 10^4 per well in 100 μl of DMEM containing 2 mM L-Glutamine, 100 U/ml Penicillin − 100 μg/ml Streptomycin and incubated at 37 °C, 5% CO2. Serial dilutions of compounds (ranging from 100 μM to 0.8 μM) were mixed with 400 pg/ml of human TNFα in DMEM containing 2% of FBS, 2 mM L-Glutamine, 100 U/ml Penicillin−100 μg/ml Streptomycin in U-bottom plates. After two hours of incubation at 37 °C, 5% CO2, 100 μl of the mix was added to the plated cells and incubated 24 hours at 37 °C, 5% CO2. 20 μl of supernatants were incubated for 3 hours with 180 μl of QUANTI-Blue™ to reveal secretion of phosphatase alcaline and plates were read at 620 nm with a spectrophotometer providing the optical density (OD).

JNK1 = target: T9, JNK1 (Homo sapiens, UniProt P45983); test: CEREP/Eurofins kinase inhibition, JNK1; format: biochemical; conditions: JNK1, 1 μM; read-out: % Inhibition of Control Values
T9 construct: purchased CEREP/Eurofins
Procedure: as §3

TNFα/TNFRII = target: T10, TNFα/TNFRII (Homo sapiens, UniProt P01375); test: TNFα-TNFRII binding ELISA; format: biochemical
T10 construct: purchased R&D Systems
Procedure: as §2

Caspase 8 = target: T11, Caspase 8 (Homo sapiens, UniProt Q14790); test: CEREP/Eurofins caspase inhibition, Caspase 8; format: biochemical; conditions: Caspase 8, 1 μM; read-out: % Inhibition of Control Values
T11 construct: purchased CEREP/Eurofins
Procedure: as §3

p38δ kinase = target: T12, p38δ kinase (Homo sapiens, UniProt O15264); test: CEREP/Eurofins kinase inhibition, p38δ; format: biochemical; conditions: read-out: % Inhibition of Control Values
T12 construct: purchased CEREP/Eurofins
Procedure: as §3

[8] = system: IκB kinases (IKK), JNK1, p38 and Syk, caspase 3, caspase 8; test: Direct inhibition of kinases and caspases related to the TNFα pathway (CEREP/Eurofins panel); format: biochemical; conditions: at 1 µM
Procedure: as §3

IKKε = target: T13, IKKε (Homo sapiens, UniProt Q14164); test: CEREP/Eurofins kinase inhibition, IKKε; format: biochemical; conditions: read-out: % Inhibition of Control Values
T13 construct: purchased CEREP/Eurofins
Procedure: as §3

[9] = system: TNFβ induced apoptosis in L929 cell line; test: Neutralization of TNFβ induced apoptosis in L929 cells (MTT); format: cell-based
Procedure: as §4, §5

[10] = livers eight hours after LPS/D-Galactosamine

T1 sequence (P01375 77-233 limits assumed): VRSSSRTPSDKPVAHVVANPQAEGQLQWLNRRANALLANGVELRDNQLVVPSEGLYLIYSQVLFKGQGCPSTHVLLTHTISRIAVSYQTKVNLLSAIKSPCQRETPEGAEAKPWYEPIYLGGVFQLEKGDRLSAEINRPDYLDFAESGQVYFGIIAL
T13 sequence (Q14164 whole entry): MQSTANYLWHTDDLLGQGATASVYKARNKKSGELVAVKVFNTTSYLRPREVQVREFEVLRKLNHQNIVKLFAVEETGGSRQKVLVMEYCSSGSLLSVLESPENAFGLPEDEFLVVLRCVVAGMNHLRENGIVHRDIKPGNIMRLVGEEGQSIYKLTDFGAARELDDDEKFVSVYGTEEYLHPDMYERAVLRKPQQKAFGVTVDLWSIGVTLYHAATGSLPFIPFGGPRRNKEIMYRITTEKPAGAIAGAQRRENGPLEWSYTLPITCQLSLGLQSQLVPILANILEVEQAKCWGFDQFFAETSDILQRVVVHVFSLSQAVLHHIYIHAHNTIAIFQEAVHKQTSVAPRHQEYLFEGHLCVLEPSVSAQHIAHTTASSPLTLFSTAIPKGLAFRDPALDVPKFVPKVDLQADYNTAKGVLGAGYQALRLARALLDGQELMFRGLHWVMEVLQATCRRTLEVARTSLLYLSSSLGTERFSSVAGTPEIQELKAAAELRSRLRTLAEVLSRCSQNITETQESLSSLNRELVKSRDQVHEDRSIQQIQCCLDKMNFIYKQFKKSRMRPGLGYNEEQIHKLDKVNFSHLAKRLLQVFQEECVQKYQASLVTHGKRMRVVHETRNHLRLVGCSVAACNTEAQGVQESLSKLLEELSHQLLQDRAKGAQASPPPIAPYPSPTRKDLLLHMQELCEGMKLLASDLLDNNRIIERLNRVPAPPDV
T5 sequence (P42574 29-175 limits assumed): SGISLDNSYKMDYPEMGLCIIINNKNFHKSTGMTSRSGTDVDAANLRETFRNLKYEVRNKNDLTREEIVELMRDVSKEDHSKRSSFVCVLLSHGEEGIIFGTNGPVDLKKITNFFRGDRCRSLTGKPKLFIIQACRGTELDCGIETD
T3 sequence (O15111 whole entry): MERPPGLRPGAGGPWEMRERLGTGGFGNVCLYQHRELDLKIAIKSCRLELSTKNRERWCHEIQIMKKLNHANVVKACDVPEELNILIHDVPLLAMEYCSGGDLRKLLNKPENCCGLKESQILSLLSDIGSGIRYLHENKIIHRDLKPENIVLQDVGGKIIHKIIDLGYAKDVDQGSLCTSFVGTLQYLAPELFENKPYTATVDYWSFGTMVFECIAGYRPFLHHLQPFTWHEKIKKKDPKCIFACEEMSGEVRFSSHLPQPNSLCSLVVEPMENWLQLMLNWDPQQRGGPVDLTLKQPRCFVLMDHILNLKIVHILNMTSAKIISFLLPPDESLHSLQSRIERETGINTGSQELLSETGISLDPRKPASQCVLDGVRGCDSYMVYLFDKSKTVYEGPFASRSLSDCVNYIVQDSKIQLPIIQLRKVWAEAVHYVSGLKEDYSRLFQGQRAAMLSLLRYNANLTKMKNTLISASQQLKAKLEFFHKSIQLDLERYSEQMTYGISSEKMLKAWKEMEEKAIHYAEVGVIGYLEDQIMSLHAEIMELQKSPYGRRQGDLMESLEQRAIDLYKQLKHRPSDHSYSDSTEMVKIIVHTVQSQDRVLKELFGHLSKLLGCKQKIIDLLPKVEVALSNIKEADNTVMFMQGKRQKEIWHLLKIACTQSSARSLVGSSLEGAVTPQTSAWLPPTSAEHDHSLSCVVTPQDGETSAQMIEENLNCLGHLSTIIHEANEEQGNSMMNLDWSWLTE
T11 sequence (Q14790 217-374 limits assumed): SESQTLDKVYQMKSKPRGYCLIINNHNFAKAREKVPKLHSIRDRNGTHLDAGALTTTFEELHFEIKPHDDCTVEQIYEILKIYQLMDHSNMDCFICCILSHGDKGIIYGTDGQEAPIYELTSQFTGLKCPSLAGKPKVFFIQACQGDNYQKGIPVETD
T6 sequence (O14920 whole entry): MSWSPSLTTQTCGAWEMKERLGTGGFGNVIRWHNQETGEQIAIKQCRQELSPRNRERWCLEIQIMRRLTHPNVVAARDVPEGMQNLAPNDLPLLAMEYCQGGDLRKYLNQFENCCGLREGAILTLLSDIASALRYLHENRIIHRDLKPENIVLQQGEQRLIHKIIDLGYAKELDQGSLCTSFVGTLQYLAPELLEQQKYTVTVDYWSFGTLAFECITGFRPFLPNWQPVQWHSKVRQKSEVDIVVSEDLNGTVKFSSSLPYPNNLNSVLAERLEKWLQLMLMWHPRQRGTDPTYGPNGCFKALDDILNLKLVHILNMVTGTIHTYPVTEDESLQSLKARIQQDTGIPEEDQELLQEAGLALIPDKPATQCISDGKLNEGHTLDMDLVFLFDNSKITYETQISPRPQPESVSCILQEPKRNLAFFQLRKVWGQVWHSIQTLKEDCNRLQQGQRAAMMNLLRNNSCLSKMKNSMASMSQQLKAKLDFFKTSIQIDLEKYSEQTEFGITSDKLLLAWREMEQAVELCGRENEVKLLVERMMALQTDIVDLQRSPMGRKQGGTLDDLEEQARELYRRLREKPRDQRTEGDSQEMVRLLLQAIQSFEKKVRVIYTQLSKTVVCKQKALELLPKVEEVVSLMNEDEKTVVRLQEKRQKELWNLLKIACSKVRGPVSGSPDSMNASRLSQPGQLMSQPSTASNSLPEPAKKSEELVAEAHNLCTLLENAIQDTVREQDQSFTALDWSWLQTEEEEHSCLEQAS
T8 sequence (Q16539 whole entry): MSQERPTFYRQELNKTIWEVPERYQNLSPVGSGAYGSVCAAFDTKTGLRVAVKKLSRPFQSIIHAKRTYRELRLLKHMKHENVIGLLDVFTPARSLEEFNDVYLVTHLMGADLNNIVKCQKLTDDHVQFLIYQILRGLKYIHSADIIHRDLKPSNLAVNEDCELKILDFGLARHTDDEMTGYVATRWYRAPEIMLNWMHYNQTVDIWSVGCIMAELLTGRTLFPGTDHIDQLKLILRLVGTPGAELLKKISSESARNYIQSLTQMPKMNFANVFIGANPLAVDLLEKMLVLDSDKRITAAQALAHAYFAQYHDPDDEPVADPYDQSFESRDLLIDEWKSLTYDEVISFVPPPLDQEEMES
T4 sequence (P53778 whole entry): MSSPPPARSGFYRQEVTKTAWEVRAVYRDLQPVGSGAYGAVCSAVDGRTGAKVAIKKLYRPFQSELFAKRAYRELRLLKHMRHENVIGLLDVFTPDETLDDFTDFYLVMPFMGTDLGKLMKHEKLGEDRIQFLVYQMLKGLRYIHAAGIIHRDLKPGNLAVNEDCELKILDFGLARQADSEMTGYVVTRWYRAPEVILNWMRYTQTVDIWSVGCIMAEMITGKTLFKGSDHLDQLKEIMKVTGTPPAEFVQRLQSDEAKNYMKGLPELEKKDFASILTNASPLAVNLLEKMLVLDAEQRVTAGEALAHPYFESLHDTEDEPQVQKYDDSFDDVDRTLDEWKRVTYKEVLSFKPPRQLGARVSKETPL
T12 sequence (O15264 whole entry): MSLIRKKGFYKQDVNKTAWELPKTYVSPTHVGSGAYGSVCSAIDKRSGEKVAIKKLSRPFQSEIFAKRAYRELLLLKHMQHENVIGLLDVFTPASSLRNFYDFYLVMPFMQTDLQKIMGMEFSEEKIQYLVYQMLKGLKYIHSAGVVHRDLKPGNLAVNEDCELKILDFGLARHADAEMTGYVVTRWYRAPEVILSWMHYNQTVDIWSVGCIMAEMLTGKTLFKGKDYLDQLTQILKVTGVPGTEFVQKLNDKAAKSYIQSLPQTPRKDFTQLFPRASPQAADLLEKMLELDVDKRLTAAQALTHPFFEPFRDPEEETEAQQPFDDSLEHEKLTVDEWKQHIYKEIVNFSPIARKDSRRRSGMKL
T9 sequence (P45983 whole entry): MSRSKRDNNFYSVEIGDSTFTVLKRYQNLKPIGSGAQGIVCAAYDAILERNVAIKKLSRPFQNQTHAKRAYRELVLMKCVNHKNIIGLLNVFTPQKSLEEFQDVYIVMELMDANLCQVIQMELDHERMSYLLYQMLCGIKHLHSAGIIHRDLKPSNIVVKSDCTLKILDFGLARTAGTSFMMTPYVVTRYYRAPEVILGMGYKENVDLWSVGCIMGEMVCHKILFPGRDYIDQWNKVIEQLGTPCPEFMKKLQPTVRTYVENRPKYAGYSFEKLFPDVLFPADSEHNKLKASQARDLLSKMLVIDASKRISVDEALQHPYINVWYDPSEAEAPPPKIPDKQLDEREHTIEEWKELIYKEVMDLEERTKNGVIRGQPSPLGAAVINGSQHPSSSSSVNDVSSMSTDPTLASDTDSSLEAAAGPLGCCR
T2 sequence (P01375 77-233 limits assumed): as the sequence (P01375 77-233 limits assumed) above
T10 sequence (P01375 77-233 limits assumed): as above

In the case of `Cc1c(Cl)cccc1N(CC(=O)N1CCN(Cc2ccccc2)CC1)S(=O)(=O)c1ccccc1` [Compound 1], the “activation of caspase 8” value (caspase 8 activation) is reported as “blocked the activation”, the “ligand efficiency LE1” value (TNFα [1]; from Kd1) is reported as 0.22 and the “ligand efficiency LE2” value (TNFα [1]; from Kd2) is reported as 0.37. For the same molecule, the Kd (TNFα [1]; read-out: Kd1 of TNFα/compound 1 complex) was 4.79 ± 1.12 µM, the Kd (TNFα [1]; read-out: Kd2 of TNFα/compound 1 complex) was 0.00231 ± 0.00103 µM and the IC50 (TNFα/TNFRI) was 37 µM. For the same molecule, the inhibition at 1 µM (IKKα) was 3.2%, the inhibition at 1 µM (p38γ kinase) was -11% and the CXCL1 in supernatants [2] was “significantly less CXCL1”. For the same molecule, the IC50 [3] was ~10 µM, the inhibition at 1 µM (Caspase 3) was -1.8% and the “modification of intrinsic tryptophan fluorescence of TNFα” value (TNFα [4]) was “dose dependent manner”. For the same molecule, the IC50 ([5]; L929, L929 cell line) was 12 µM, the IC50 ([5]; L929 cell line) was ~10 µM and the inhibition at 1 µM (IKKβ) was 10.3%. For the same molecule, the bioavailability (Bioavailability) was “low bioavailability”, the “activation of caspase 3” value (caspase 3 activation) was “blocked the activation” and the inhibition at 1 µM (Syk) was -6.9%. The inhibition at 1 µM (p38α kinase) was 1.5%, the “solubility in aqueous solvents” value [6] was “moderate solubility” and the “expression of cleaved caspase 3 in liver (immunohistochemistry)” value (Balb/C mice; [10]) was “reduced expression of cleaved caspase 3”. For the same molecule, the “liver damage and hemorrhage (H&E histopathology)” value (Balb/C mice; [10]) was “reduced liver damage and hemorrhage”, the “mice survival / protection from shock” value (Balb/C mice; oral 5 mg per mouse eight hours before shock) was “fully protective effect” and the “mice serum level of AST/ALT” value (Balb/C mice; oral 5 mg, eight hours after shock) was “diminished”. For the same molecule, the “mice serum level of TNFα” value (Balb/C mice; oral 5 mg, three hours after shock) was “did not affect”, the IC50 [7] was 10 µM and the inhibition at 1 µM (JNK1) was -3%. The IC50 (TNFα/TNFRII) was 31 µM, the inhibition at 1 µM (Caspase 8) was -7.3% and the inhibition at 1 µM (p38δ kinase) was -1.8%. The “effect on kinases and caspases related to the TNFα pathway” value [8] was “no significant effect”, the inhibition at 1 µM (IKKε) was 7.3% and the maximal survival ([9]; TNFβ, at 100 μM) was 40%. The IC50 ([9]; read-out: IC50, inhibition of TNFβ induced apoptosis) was 28 µM.
